# Source: PubChem BioAssay (NCI)
#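 Method: 48-hour compound exposure of cells in 96-well plates, five concentrations, linear interpolation of endpoints. GI50 marks 50% less growth. TGI: concentration producing complete growth inhibition.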
# Tests used:
# Assay in all cases: inhibition of tumour cell growth, NCI panel, 48 h
# [1] = tested on: NCI/ADR-RES ovarian
# [2] = tested on: NCI-H522 lung
# [3] = tested on: DU-145 prostate
# [4] = tested on: RPMI-8226 leukemia
# [5] = tested on: SN12C renal
# [6] = tested on: MALME-3M melanoma
# [7] = tested on: PC-3 prostate
# [8] = tested on: COLO 205 colon
# [9] = tested on: SK-MEL-28 melanoma
# [10] = tested on: SK-MEL-2 melanoma
# [11] = tested on: 786-0 renal
# [12] = tested on: BT-549 breast
# [13] = tested on: UACC-62 melanoma
# [14] = tested on: HCC-2998 colon
# [15] = tested on: UACC-257 melanoma
# [16] = tested on: LOX IMVI melanoma
# [17] = tested on: MOLT-4 leukemia
# [18] = tested on: A498 renal
# [19] = tested on: TK-10 renal
# [20] = tested on: IGROV1 ovarian
# [21] = tested on: SF-539 CNS
# [22] = tested on: UO-31 renal
# [23] = tested on: OVCAR-8 ovarian
# [24] = tested on: A549 NSCLC
# [25] = tested on: OVCAR-3 ovarian
# [26] = tested on: K-562 leukemia
# [27] = tested on: SF-295 CNS
# [28] = tested on: SK-MEL-5 melanoma
# [29] = tested on: SR leukemia
# [30] = tested on: SNB-75 CNS
# [31] = tested on: HCT-15 colon
# [32] = tested on: ACHN renal
# [33] = tested on: OVCAR-5 ovarian
# [34] = tested on: SW-620 colon
# [35] = tested on: CCRF-CEM leukemia
# [36] = tested on: OVCAR-4 ovarian
# [37] = tested on: U251 CNS
# [38] = tested on: HOP-62 NSCLC
# [39] = tested on: HCT-116 colon
# [40] = tested on: MDA-MB-231 breast
# [41] = tested on: NCI-H226 lung
# [42] = tested on: SNB-19 CNS
# [43] = tested on: NCI-H23 lung
# [44] = tested on: SF-268 CNS
# [45] = tested on: EKVX NSCLC
# [46] = tested on: MCF7 breast
# [47] = tested on: HT29 colon
# [48] = tested on: NCI-H460 lung
# [49] = tested on: KM12 colon
# [50] = tested on: SK-OV-3 ovarian
# [51] = tested on: M14 melanoma
# [52] = tested on: MDA-MB-435
# [53] = tested on: HOP-92 NSCLC
# [54] = tested on: CAKI-1 renal
smiles,measurement,setting,value
CCOC(=O)Oc1c(OC)cc(C(=O)c2ccc(OC)c(O)c2OC)cc1OC,GI50,[1],0.378 µM
same,TGI,[1],6.97 µM
same,GI50,[2],0.311 µM
same,TGI,[2],1.99 µM
same,GI50,[3],0.885 µM
same,TGI,[3],> 100 µM
same,GI50,[4],0.456 µM
same,TGI,[4],> 100 µM
same,GI50,[5],2.79 µM
same,TGI,[5],> 100 µM
same,GI50,[6],0.686 µM
same,TGI,[6],> 100 µM
same,GI50,[7],0.562 µM
same,TGI,[7],> 100 µM
same,GI50,[8],12.5 µM
same,TGI,[8],63.5 µM
same,GI50,[9],2.78 µM
same,TGI,[9],> 100 µM
same,GI50,[10],1.79 µM
same,TGI,[10],> 100 µM
same,GI50,[11],0.475 µM
same,TGI,[11],> 100 µM
same,GI50,[12],0.465 µM
same,TGI,[12],6.97 µM
same,GI50,[13],3.82 µM
same,TGI,[13],> 100 µM
same,GI50,[14],2.31 µM
same,TGI,[14],> 100 µM
same,GI50,[15],> 100 µM
same,TGI,[15],> 100 µM
same,GI50,[16],0.557 µM
same,TGI,[16],> 100 µM
same,GI50,[17],0.492 µM
same,TGI,[17],> 100 µM
same,GI50,[18],3.19 µM
same,TGI,[18],17 µM
same,GI50,[19],> 100 µM
same,TGI,[19],> 100 µM
same,GI50,[20],3.86 µM
same,TGI,[20],> 100 µM
same,GI50,[21],0.637 µM
same,TGI,[21],5.83 µM
same,GI50,[22],3.54 µM
same,TGI,[22],> 100 µM
same,GI50,[23],3.36 µM
same,TGI,[23],> 100 µM
same,GI50,[24],3.96 µM
same,TGI,[24],> 100 µM
same,GI50,[25],0.414 µM
same,TGI,[25],> 100 µM
same,GI50,[26],0.416 µM
same,TGI,[26],> 100 µM
same,GI50,[27],0.524 µM
same,TGI,[27],49.7 µM
same,GI50,[28],0.475 µM
same,TGI,[28],55.6 µM
same,GI50,[29],0.381 µM
same,TGI,[29],> 100 µM
same,GI50,[30],0.534 µM
same,TGI,[30],> 100 µM
same,GI50,[31],0.42 µM
same,TGI,[31],> 100 µM
same,GI50,[32],1.95 µM
same,TGI,[32],> 100 µM
same,GI50,[33],5.96 µM
same,TGI,[33],> 100 µM
same,GI50,[34],0.489 µM
same,TGI,[34],> 100 µM
same,GI50,[35],0.41 µM
same,TGI,[35],> 100 µM
same,GI50,[36],6.04 µM
same,TGI,[36],> 100 µM
same,GI50,[37],0.947 µM
same,TGI,[37],> 100 µM
same,GI50,[38],0.962 µM
same,TGI,[38],> 100 µM
same,GI50,[39],0.44 µM
same,TGI,[39],12.8 µM
same,GI50,[40],3.31 µM
same,TGI,[40],> 100 µM
same,GI50,[41],4.56 µM
same,TGI,[41],40.7 µM
same,GI50,[42],0.821 µM
same,TGI,[42],> 100 µM
same,GI50,[43],2.29 µM
same,TGI,[43],> 100 µM
same,GI50,[44],10.7 µM
same,TGI,[44],> 100 µM
same,GI50,[45],2.54 µM
same,TGI,[45],> 100 µM
same,GI50,[46],0.516 µM
same,TGI,[46],> 100 µM
same,GI50,[47],3.13 µM
same,TGI,[47],22.8 µM
same,GI50,[48],1.78 µM
same,TGI,[48],> 100 µM
same,GI50,[49],0.52 µM
same,TGI,[49],> 100 µM
same,GI50,[50],2.88 µM
same,TGI,[50],> 100 µM
same,GI50,[51],0.319 µM
same,TGI,[51],> 100 µM
same,GI50,[52],0.288 µM
same,TGI,[52],1.01 µM
same,GI50,[53],0.727 µM
same,TGI,[53],> 100 µM
same,GI50,[54],1.81 µM
same,TGI,[54],> 100 µM
